According to patent US10696642B2, “TEAD transcription factor autopalmitoylation inhibitors” (The General Hospital Corporation, priority 2015, dated 2020):

Tests used:
[1] = biological target: T1, TEAD4 (Homo sapiens, UniProt Q15561); assay: Selectivity assay: TEAD4 palmitoylation (Example 20); type: biochemical; conditions: 0 to 10 μM (FIG. 27)
Protocol: (§1) Assays were performed to measure inhibition of TEAD4 palmitoylation compared with other palmitoyl acyltransferses, DHHC4, DHHC7 and DHHC11. The ability of compound (4) (“CP-1”) to inhibit palmitoylation was tested at concentrations in the range from 0 to 10 μM and the amount of palmitoylation was quantified.

[2] = biological target: TEAD1-YAP interaction (Homo sapiens, UniProt P28347); assay: Gal4-TEAD1/YAP reporter assay; type: cell-based; conditions: read-out: IC50, inhibition of TEAD1-YAP interaction
Protocol: FIG. 13 is a plot of inhibition of TEAD1-YAP interaction in a Gal4-TEAD1/YAP reported assay by compound 4. […] (Data are represented as mean+/−SEM, n=3.) FIG. 14 is graph showing compound 4 inhibits YAP-TEAD target gene expression in cancer cell line (HeLa).
To test whether compound 4 can inhibit TEAD's functions, inhibition of the TEAD YAP interaction using the Gal4-TEAD1 reporter system was evaluated.
Gal-UAS-Luc, YAP, Gal4-TEAD1, Gal4-DBD or Myc-TEAD1 and Renilla luciferase control constructs were transfected into 293T cells and 48 h post-transfection, cells were processed using the Dual-Glo luciferase assay system (Promega) following manufacturer's instructions. Luminescence of Firefly and Renilla luciferase activities were quantified using Perkin Elmer EnVision plate reader.

[3] = biological target: T1, TEAD4; assay: In vitro palmitoylation of purified TEAD4 with 1 μM alkyne-palmitoyl-CoA; type: biochemical; conditions: purified TEAD4, 1 μM alkyne-palmitoyl-CoA, 0 to 10 μM compound (FIG. 23)
Protocol: (§2) Assays were performed to measure inhibition of TEAD2 and TEAD4 palmitoylation in vitro using purified TEAD2 and TEAD4 proteins and 1 μM of alkyne-palmitoyl-CoA. Compound (4) (“CP-1”) was tested at concentrations in the range from 0 to 10 μM and the amount of palmitoylation was quantified.

[4] = biological target: T2, TEAD1 (Homo sapiens, UniProt P28347); assay: TEAD1 palmitoylation in transfected cells; type: cell-based; conditions: 1 μM alkyne-palmitic acid probe, 0 to 10 μM compound (FIG. 24)
T2 construct: Myc; expressed in transfected cells
Protocol: Assays were performed to measure inhibition of TEAD1 and TEAD4 palmitoylation in cells that were transfected with TEAD1 and TEAD4 proteins and labelled with 1 μM of alkyne-palmitic acid probe. The ability of compound (4) (“CP-1”) to inhibit palmitoylation was tested at concentrations in the range from 0 to 10 μM and the amount of palmitoylation was quantified.

[5] = tested on: MCF10A+YAP cells; assay: Cell proliferation assay, YAP transformed MCF10A; type: cell-based; conditions: 500 cells/well, 10 μM (FIG. 20)
Protocol: In addition, the cells were treated with compound 4 (10 μM) or DMSO controls to evaluate cell viability.
Human cancer cell lines (HuH7, JHH7), transformed MCF10A-YAP and mouse Lats1/2 DKO cells were cultured in 5% FBS containing media. The cells were seeded into 96-well plate with 500 cells/well. Various concentrations of compounds (10 nM to 20 μM) or DMSO control were added into the wells. The cells were further incubated for 2-5 days. The cell viability is determined by using CellTiter Glo (Promega). The data were then normalized with DMSO control and plotted in Prism software Human melanoma cell A375 and dermal fibroblasts are control cells and are tested similarly.

[6] = biological target: T3, TEAD2 (Homo sapiens, UniProt Q15562); assay: In vitro autopalmitoylation of purified TEAD2 with 1 μM alkyne palmitoyl-CoA; type: biochemical
T3 construct: The cDNA encoding human TEAD2 (residues 217-447, TEAD2^217-447) was cloned into a pET29 vector; made in house; host or cells: E. coli BL21(DE3)-T1R
Protocol: Recombinant TEAD2 YBD was incubated with 1 μM of alkyne palmitoyl-CoA for 1 h in the presence of control (DMSO) or increasing 0.5-20 μM of compound 4. Palmitoylation of TEAD2 was detected by streptavidin blot.
as §2

[7] = tested on: DHHC7; assay: Selectivity assay: palmitoyl acyltransferase DHHC7; type: biochemical; conditions: 0 to 10 μM (FIG. 27)
Protocol: as §1

[8] = tested on: JHH7 cells; assay: Colony formation, JHH7; type: cell-based, human; conditions: JHH7 (FIG. 28 panel B)
[9] = tested on: DHHC11; assay: Selectivity assay: palmitoyl acyltransferase DHHC11; type: biochemical; conditions: 0 to 10 μM (FIG. 27)
Protocol: as §1

[10] = tested on: HuH7 cells; assay: Colony formation, HuH7; type: cell-based, human
Protocol: Assays were performed to measure inhibition of cancer cell proliferation in HuH7 cells by compounds (4), (22) and (36), which were each tested at 0-20 μM.

[11] = biological target: T4, TEAD4-YAP interaction (Homo sapiens, UniProt Q15561); assay: Co-immunoprecipitation of TEAD4 and YAP; type: cell-based; conditions: 0 to 10 μM (FIG. 25)
T4 construct: Myc; expressed in transfected cells; host or cells: HEK293A
Protocol: HEK293A cells were transfected with the indicated above. After 48 h, cells were lysed with lysis buffer (50 mM Tris-HCl, pH 7.3, 150 mM NaCl, 0.5 mM EDTA, 1% Triton X-100, PhosSTOP phosphatase inhibitor cocktail, cOmplete EDTA-free protease inhibitors cocktail). Flag-YAP or Myc-TEAD1 was immunoprecipitated with anti-FLAG M2 magnetic beads (Sigma Aldrich) or anti-c-Myc antibody (M4439, Sigma Aldrich), respectively, overnight with rotation at 4° C. TEAD1 was captured using Protein A/G magnetic resins (Life technologies). Protein-bound resins were washed three times with lysis buffer and processed with SDS-PAGE sample buffer. Blots were probed with anti-c-Myc (Sigma Aldrich), anti-HA (Sigma Aldrich), anti-FLAG M2 (F1804, Sigma Aldrich).
Co-immunoprecipitation assays of TEAD4 and YAP were performed. The ability of compound (4) (“CP-1”) to inhibit to inhibit the TEAD4-YAP interaction was tested at concentrations in the range from 0 to 10 μM.

[12] = tested on: Lats1/2 double knock-out MEF cells; assay: Scratch (cell migration) assay; type: cell-based, mouse; conditions: 2.5 μM; DMSO control closed the gap within 16-24 hs (FIG. 21)
Protocol: It has been reported that YAP/TAZ could promote cell invasion and migration (Chan et al., 2008). […] Cells were treated with DMSO control or 2.5 μM of MGH-CP1, and the activities of the compound in blocking the closure of the scratched area was measured. Cells treated with DMSO control migrated fast and closed the gap within 16-24 hs. […] Therefore, further optimization of MGH-CP1 is needed to develop potent and specific inhibitors as chemical tools or “lead” compounds for drug discovery.

T1 sequence (Q15561 whole entry, species assumed): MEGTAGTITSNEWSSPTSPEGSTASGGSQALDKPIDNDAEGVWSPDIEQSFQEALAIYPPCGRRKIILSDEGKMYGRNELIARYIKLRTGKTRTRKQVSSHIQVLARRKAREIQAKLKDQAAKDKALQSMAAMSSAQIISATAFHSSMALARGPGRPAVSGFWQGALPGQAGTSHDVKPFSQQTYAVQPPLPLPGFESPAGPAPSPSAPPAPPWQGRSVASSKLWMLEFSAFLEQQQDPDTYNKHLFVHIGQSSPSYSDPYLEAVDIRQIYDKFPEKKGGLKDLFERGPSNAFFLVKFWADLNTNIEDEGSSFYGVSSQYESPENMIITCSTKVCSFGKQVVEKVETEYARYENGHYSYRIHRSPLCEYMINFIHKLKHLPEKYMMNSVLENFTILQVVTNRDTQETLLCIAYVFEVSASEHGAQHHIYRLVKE
T3 sequence (Q15562 217-447): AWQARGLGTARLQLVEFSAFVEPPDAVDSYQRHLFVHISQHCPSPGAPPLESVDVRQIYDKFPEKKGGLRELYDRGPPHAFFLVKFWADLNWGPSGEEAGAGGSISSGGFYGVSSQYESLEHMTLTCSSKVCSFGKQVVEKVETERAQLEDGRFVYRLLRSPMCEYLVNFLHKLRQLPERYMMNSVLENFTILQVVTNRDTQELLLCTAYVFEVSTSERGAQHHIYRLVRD
T4 sequence (Q15561 whole entry): as the sequence (Q15561 whole entry, species assumed) above
Chain of TEAD1-YAP interaction (P28347 167-426 limits assumed): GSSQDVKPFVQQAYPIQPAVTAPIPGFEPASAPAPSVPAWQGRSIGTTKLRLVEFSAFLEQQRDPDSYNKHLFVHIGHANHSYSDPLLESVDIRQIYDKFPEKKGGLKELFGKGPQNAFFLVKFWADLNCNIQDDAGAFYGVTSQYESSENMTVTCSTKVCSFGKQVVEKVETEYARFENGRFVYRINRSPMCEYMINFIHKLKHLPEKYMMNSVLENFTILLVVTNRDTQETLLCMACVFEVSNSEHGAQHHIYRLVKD
T2 sequence (P28347 whole entry): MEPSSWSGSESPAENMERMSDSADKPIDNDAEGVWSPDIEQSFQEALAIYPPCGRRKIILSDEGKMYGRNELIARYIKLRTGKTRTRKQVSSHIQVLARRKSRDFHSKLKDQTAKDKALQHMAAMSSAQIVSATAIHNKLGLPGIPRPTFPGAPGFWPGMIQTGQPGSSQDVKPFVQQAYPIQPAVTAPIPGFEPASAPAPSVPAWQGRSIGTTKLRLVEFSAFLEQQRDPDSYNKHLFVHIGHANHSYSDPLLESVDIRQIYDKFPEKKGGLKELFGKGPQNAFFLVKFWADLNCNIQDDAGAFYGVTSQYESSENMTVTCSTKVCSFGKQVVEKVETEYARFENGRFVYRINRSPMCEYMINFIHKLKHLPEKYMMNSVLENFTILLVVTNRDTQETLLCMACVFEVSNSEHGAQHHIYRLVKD

O=C(CSc1nnc[nH]1)Nc1ccc(C23CC4CC(CC(C4)C2)C3)cc1 [Compound 4]
inhibition of TEAD4 palmitoylation [1]: dose-dependently inhibited | IC50 [2]: 83 nM | inhibition of TEAD4 palmitoylation in vitro [3]: dose-dependently inhibited | inhibition of TEAD1 palmitoylation in cells [4]: dose-dependently inhibited | inhibition of YAP-dependent cancer cell proliferation [5]: inhibits | inhibition of TEAD2 YBD autopalmitoylation in vitro ([6]; 1 μM alkyne palmitoyl-CoA, 1 h, 0.5-20 μM compound, streptavidin blot (FIG. 9)): dose-dependently inhibits | inhibition of TEAD2 palmitoylation in vitro ([6]; purified TEAD2, 1 μM alkyne-palmitoyl-CoA, 0 to 10 μM compound (FIG. 23)): dose-dependently inhibited | inhibition of palmitoylation with DHHC7 [7]: did not inhibit | inhibition of colony formation [8]: inhibits | inhibition of palmitoylation with DHHC11 [9]: did not inhibit | inhibition of colony formation ([10]; HuH7 (FIG. 28 panel B)): inhibits | inhibition of cancer cell proliferation / colony formation in HuH7 cells ([10]; tested at 0-20 μM (FIG. 29)): effective | inhibition of the interaction of TEAD4 with YAP [11]: dose-dependently inhibited | inhibition of cell migration (closure of the scratched area) [12]: did not migrate
